Literature values in patent US20240207270A1, “COMPOUNDS AND COMPOSITIONS FOR MODULATING LIPID METABOLISM” (WaveBreak Inc., priority 2021, published 2024).
pKi: −log10 of the molar value.

Biological target: ROCK
Settings: ATP-competitive inhibitor of ROCK

Cc1cncc2cccc(S(=O)(=O)N3CCCNC[C@@H]3C)c12 [(S)-H-1152]
pKi: 8.80
